# According to US20250235460A1, “COMBINATION THERAPY USING GLUCOSE-DEPENDENT INSULINOTROPIC POLYPEPTIDE RECEPTOR ANTAGONIST COMPOUNDS AND GLP-1 RECEPTOR AGONIST COMPOUNDS” (Pfizer Inc., priority 2024, published 2025):
# How the values were obtained:
# human GLP-1R [1] = target: human GLP-1R (Homo sapiens, UniProt P43220, G168S); test: CHO GLP-1R Clone H6 cAMP HTRF agonist assay (Assay 1, high receptor density); type: cell-based; details: for EC50: CHO GLP-1R clone H6, cAMP HTRF, geometric mean; for Emax: CHO GLP-1R clone H6, arithmetic mean, relative to saturating GLP-1 (1 μM), read-out: Assay 1 Emax (%)
# Sequence of human GLP-1R (Homo sapiens, UniProt P43220, G168S) (P43220 24-463 G168S): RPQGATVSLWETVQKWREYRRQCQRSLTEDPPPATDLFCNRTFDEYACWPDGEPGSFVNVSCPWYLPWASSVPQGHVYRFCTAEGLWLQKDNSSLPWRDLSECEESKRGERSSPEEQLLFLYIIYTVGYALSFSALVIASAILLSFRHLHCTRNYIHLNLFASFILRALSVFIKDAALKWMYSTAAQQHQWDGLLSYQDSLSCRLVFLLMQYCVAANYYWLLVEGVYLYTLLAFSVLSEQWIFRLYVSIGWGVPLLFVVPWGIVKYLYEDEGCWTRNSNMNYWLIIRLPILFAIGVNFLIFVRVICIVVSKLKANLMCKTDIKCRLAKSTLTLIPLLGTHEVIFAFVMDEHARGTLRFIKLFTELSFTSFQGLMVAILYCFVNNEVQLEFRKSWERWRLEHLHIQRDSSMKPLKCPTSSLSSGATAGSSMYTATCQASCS
# Summary of the method: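 Two significant figures are used throughout. Each EC50 is the geometric mean of its replicates, and each Emax is the arithmetic mean.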
# human GLP-1R [2] = target: human GLP-1R (Homo sapiens, UniProt P43220, L260F); test: CHO GLP-1R Clone C6 cAMP HTRF agonist assay (Assay 2, low receptor density); type: cell-based; details: for EC50: CHO GLP-1R clone C6, cAMP HTRF, geometric mean; for Emax: CHO GLP-1R clone C6, arithmetic mean, relative to saturating GLP-1 (1 μM)
# Sequence of human GLP-1R (Homo sapiens, UniProt P43220, L260F) (P43220 24-463 L260F): as the sequence (P43220 24-463 G168S) above, with S145G, L237F counted along it
# Excerpt: In Table 5 and Table 6, assay data are presented to two (2) significant figures as the geometric mean (EC50s) and arithmetic mean (Emax) based on the number of replicates listed (Number). A blank cell means there was no data for that Example or the Emax was not calculated.
Compound,EC50 (human GLP-1R [1]) [µM],Emax (human GLP-1R [1]) [%],EC50 (human GLP-1R [2]) [µM],Emax (human GLP-1R [2]) [%]
"CC(c1cnn(C)n1)n1c(CN2CCC(c3cccc(OCc4ccc(Cl)cc4F)n3)CC2)nc2ccc(C(=O)O)cc21 (stereo not drawn) [Compound 335B, 2-[(4-{6-[(4-chloro-2-fluorobenzyl)oxy]pyridin-2-yl}piperidin-1-yl)methyl]-1-[1-(2-methyl-2H-1,2,3-triazol-4-yl)ethyl]-1H-benzimidazole-6-carboxylic acid]",0.005,82,0.041,77
"Cc1ccc(Cn2c(CN3CCC(c4cccc(OCc5ccc(Cl)cc5F)n4)CC3)nc3ccc(C(=O)O)cc32)cn1 [Compound 336B, 2-[(4-{6-[(4-chloro-2-fluorobenzyl)oxy]pyridin-2-l}piperidin-1-yl)methyl]-1-[(6-methylpyridin-3-yl)methyl]-1H-benzimidazole-6-carboxylic acid]",0.15,68,5.3,80
"O=C(O)c1ccc2nc(CN3CCC(c4cccc(OCc5ccc(Cl)cc5F)n4)CC3)n(Cc3ccon3)c2c1 [Compound 344B, 2-[(4-{6-[(4-chloro-2-fluorobenzyl)oxy]pyridin-2-yl}piperidin-1-yl)methyl]-1-(1,2-oxazol-3-ylmethyl)-1H-benzimidazole-6-carboxylic acid]",0.037,69,1.2,83
"Cn1cnnc1Cn1c(CN2CCC(c3cccc(OCc4ccc(Cl)cc4F)n3)CC2)nc2ccc(C(=O)O)cc21 [Compound 345B, 2-[(4-{6-[(4-chloro-2-fluorobenzyl)oxy]pyridin-2-yl}piperidin-1-yl)methyl]-1-[(4-methyl-4H-1,2,4-triazol-3-yl)methyl]-1H-benzimidazole-6-carboxylic acid]",0.0061,89,0.15,97
"COCCn1c(CN2CCN(c3cccc(OCc4ccc(Cl)cc4F)n3)CC2C(F)(F)F)nc2ccc(C(=O)O)cc21 (stereo not drawn) [Compound 348B, 2-((4-(6-((4-Chloro-2-fluorobenzyl)oxy)pyridin-2-yl)-2-(trifluoromethyl)piperazin-1-yl)methyl)-1-(2-methoxyethyl)-1H-benzo[d]imidazole-6-carboxylic acid]",0.054,81,2.1,100
"COCCn1c(CN2CCN(c3cccc(OCc4ccc(Cl)cc4F)n3)C[C@@H]2C)nc2ccc(C(=O)O)cc21 [Compound 355B, 2-{[(2S)-4-{6-[(4-chloro-2-fluorobenzyl)oxy]pyridin-2-yl}-2-methylpiperazin-1-yl]methyl}-1-(2-methoxyethyl)-1H-benzimidazole-6-carboxylic acid]",0.0063,83,0.11,87
"N#Cc1ccc(COc2cccc(C3CCN(Cc4nc5ccc(C(=O)O)cc5n4CC4CCCO4)CC3)n2)cc1 (stereo not drawn) [Compound 359B, 2-[(4-{6-[(4-cyanobenzyl)oxy]pyridin-2-yl}piperidin-1-yl)methyl]-1-(tetrahydrofuran-2-ylmethyl)-1H-benzimidazole-6-carboxylic acid]",0.0019,63,0.055,75
"N#Cc1ccc(COc2nc(C3CCN(Cc4nc5ccc(C(=O)O)cc5n4CC4CCCO4)CC3)ccc2F)cc1 (stereo not drawn) [Compound 360B, 2-[(4-{6-[(4-cyanobenzyl)oxy]-5-fluoropyridin-2-yl}piperidin-1-yl)methyl]-1-(tetrahydrofuran-2-ylmethyl)-1H-benzimidazole-6-carboxylic acid]",–,72,–,84
"N#Cc1ccc(COc2nc(C3CCN(Cc4nc5ccc(C(=O)O)cc5n4CC4CCOC4)CC3)ccc2F)cc1 (stereo not drawn) [Compound 361B, 2-[(4-{6-[(4-cyanobenzyl)oxy]-5-fluoropyridin-2-yl}piperidin-1-yl)methyl]-1-(tetrahydrofuran-3-ylmethyl)-1H-benzimidazole-6-carboxylic acid]",–,73,–,81
"N#Cc1ccc(COc2cccc(C3CCN(Cc4nc5ccc(C(=O)O)cc5n4CC4CCOC4)CC3)n2)c(F)c1 (stereo not drawn) [Compound 363B, 2-[(4-{6-[(4-cyano-2-fluorobenzyl)oxy]pyridin-2-yl}piperidin-1-yl)methyl]-1-(tetrahydrofuran-3-ylmethyl)-1H-benzimidazole-6-carboxylic acid]",–,65,–,71
"C[C@H]1CN(c2cccc(OCc3ccc(C#N)cc3F)n2)CCN1Cc1nc2ccc(C(=O)O)cc2n1CC1CCCO1 (stereo partly drawn) [Compound 364B, 2-{[(2S)-4-{6-[(4-cyano-2-fluorobenzyl)oxy]pyridin-2-yl}-2-methylpiperazin-1-yl]methyl}-1-(tetrahydrofuran-2-ylmethyl)-1H-benzimidazole-6-carboxylic acid]",0.0014,–,0.02,–

# More lines, in order of falling EC50 (human GLP-1R [1]), values ahead:
EC50 (human GLP-1R [1]) [µM],Emax (human GLP-1R [1]) [%],EC50 (human GLP-1R [2]) [µM],Emax (human GLP-1R [2]) [%],Compound
0.1,–,1.1,75,"COCCn1c(CN2CCN(c3cccc(OCc4ccc(Cl)cc4F)n3)C[C@H]2C)nc2ccc(C(=O)O)cc21 [Compound 356B, 2-{[(2R)-4-{6-[(4-chloro-2-fluorobenzyl)oxy]pyridin-2-yl}-2-methylpiperazin-1-yl]methyl}-1-(2-methoxyethyl)-1H-benzimidazole-6-carboxylic acid]"
0.094,78,1.5,69,"COCCn1c(CN2CCN(c3cccc(OCc4ccc(Cl)cc4F)n3)C[C@@H]2CO)nc2ccc(C(=O)O)cc21 [Compound 354B, 2-{[(2R)-4-{6-[(4-chloro-2-fluorobenzyl)oxy]pyridin-2-yl}-2-(hydroxymethyl)piperazin-1-yl]methyl}-1-(2-methoxyethyl)-1H-benzimidazole-6-carboxylic acid]"
0.046,66,1.4,83,"COCCn1c(CN2CCN(c3cccc(OCc4ccc(Cl)cc4F)n3)CC2(C)C)nc2ccc(C(=O)O)cc21 [Compound 352B, 2-[(4-{6-[(4-chloro-2-fluorobenzyl)oxy]pyridin-2-yl}-2,2-dimethylpiperazin-1-yl)methyl]-1-(2-methoxyethyl)-1H-benzimidazole-6-carboxylic acid]"
0.036,71,1.6,82,"O=C(O)c1ccc2nc(CN3CCC(c4cccc(OCc5ccc(Cl)cc5F)n4)CC3)n(Cc3n[nH]c(C4CC4)n3)c2c1 [Compound 339B, 2-[(4-{6-[(4-chloro-2-fluorobenzyl)oxy]pyridin-2-yl}piperidin-1-yl)methyl]-1-[(5-cyclopropyl-1H-1,2,4-triazol-3-yl)methyl]-1H-benzimidazole-6-carboxylic acid]"
0.021,79,0.54,–,"O=C(O)c1ccc2nc(CN3CCC(c4cccc(OCc5ccc(Cl)cc5F)n4)CC3)n(CCC(F)(F)F)c2c1 [Compound 346B, 2-[(4-{6-[(4-chloro-2-fluorobenzyl)oxy]pyridin-2-yl}piperidin-1-yl)methyl]-1-(3,3,3-trifluoropropyl)-1H-benzimidazole-6-carboxylic acid]"
0.012,64,0.27,–,"C[C@H]1CN(c2cccc(OCc3ccc(C#N)cc3)n2)CCN1Cc1nc2ccc(C(=O)O)cc2n1CC1CCCO1 (stereo partly drawn) [Compound 362B, 2-{[(2S)-4-{6-[(4-cyanobenzyl)oxy]pyridin-2-yl}-2-methylpiperazin-1-yl]methyl}-1-(tetrahydrofuran-2-ylmethyl)-1H-benzimidazole-6-carboxylic acid]"
0.0069,78,0.17,96,"COCC1(Cn2c(CN3CCC(c4cccc(OCc5ccc(Cl)cc5F)n4)CC3)nc3ccc(C(=O)O)cc32)CCC1 [Compound 347B, 2-[(4-{6-[(4-chloro-2-fluorobenzyl)oxy]pyridin-2-yl}piperidin-1-yl)methyl]-1-{[1-(methoxymethyl)cyclobutyl]methyl}-1H-benzimidazole-6-carboxylic acid]"
0.0056,80,0.2,89,"CC[C@H]1CN(c2cccc(OCc3ccc(Cl)cc3F)n2)CCN1Cc1nc2ccc(C(=O)O)cc2n1CCOC [Compound 353B, 2-{[(2S)-4-{6-[(4-chloro-2-fluorobenzyl)oxy]pyridin-2-yl}-2-ethylpiperazin-1-yl]methyl}-1-(2-methoxyethyl)-1H-benzimidazole-6-carboxylic acid]"
0.0052,66,0.12,80,"COCCn1c(CN2CCN(c3cccc(OCc4ccc(Cl)cc4F)n3)C[C@@H]2C(C)C)nc2ccc(C(=O)O)cc21 [Compound 351B, 2-{[(2S)-4-{6-[(4-chloro-2-fluorobenzyl)oxy]pyridin-2-yl}-2-(propan-2-yl)piperazin-1-yl]methyl}-1-(2-methoxyethyl)-1H-benzimidazole-6-carboxylic acid]"
